Reference: patent publication US11697772B2, “Hydrotropic composition and its uses” (KEMIRA OYJ, priority 2017, dated 2023)
Several values for one entry are separate records, joined by “and”; a condition that tells them apart may be missing. Equal entries are not always repeated. Where two headings read alike, the source gives them in different places.

Assays:
[1] = Critical micelle concentration by optical pendant drop method (surface tension); assay type: physicochemical; conditions: in water, superscript L logarithmic fitting, S sigmoidal fitting
From the text: The surface-active molecules (surfactants) dissolve in aqueous solutions as monomers to certain concentration threshold, after which they start to build up into differing aggregates. This concentration threshold is called critical micellar concentration (CMC). However, for many surfactants the CMC is moreover a concentration range, not a specific concentration point, and the width of the range depends greatly on the structure of the compound. […] The optical pendant drop method using a contact angle meter (CAM 200, KSV Instruments, Espoo, Finland) was used for determining the CMCs. In short, a series of differing IL concentrations in water solution was investigated. A pendant-drop of a constant height was formed and the surface tension of the drop was determined based on the drop curvature by using a fitting method according to Young-Laplace equation. The surface tension was determined based on the curvature and plotted as a function of the IL concentration. The surface tension of the drop decreases as a function of increasing surfactant concentration because the singly dispersed IL molecules diffuse and orientate at the air-water interface and therefore reduce the surface tension. When the concentration reaches the CMC, the singly dispersed molecules form aggregates and no additional molecules diffuse to the surface of the drop. Therefore no change in surface tension is observed. The CMCs were determined based on the intersection point of two trend lines fitted based on the data. The surface tension was either plotted as a function of IL concentration or logarithm of the concentration and either sigmoidal or logarithmic fit, respectively, was used. The choice of method was dependent on which method provided the best fit.

[2] = Differential scanning calorimetry of IL/DPPC liposome mixtures (main phase transition); assay type: physicochemical; conditions: for Loss of transition (concentration range within which the phase transition was no longer detected): DPPC liposomes 0.4 mM lipid, DSC heating scans
Protocol: The median effective concentrations (EC50) were determined for each IL. Since the toxic effect was thought to be caused by permeation of these surface-active molecules into the cell wall of the bacteria, related interactions of ILs with biomimetic liposomes were investigated utilizing differential scanning calorimetry (DSC). In DSC experiments, dipalmitoyl phosphatidylcholine (DPPC) liposomes were used as biomimicking membranes and the change in the main phase transition temperature (Tm) of the DPPC bilayer was followed, as a function of the IL concentrations. Such measurements could potentially offer more information on how the aforementioned ILs interact with the lipid bilayers. Lastly, the critical micelle concentrations (CMC) were defined for the ILs. Based on the CMCs, it can be defined if the ILs are dissolved as singly dispersed molecules or form a dispersion of spherical micelles, or other self-assembled structures (aggregates). Therefore, it can be determined if the interactions with the bacteria or liposomes take place between IL aggregates or singly dispersed IL molecules.
The DSC experiments were performed in order to find out the IL concentrations that induce the drift in the DPPC bilayer phase transition temperature. FIG. 3 illustrates the representative endotherms, which were recorded during the second heating scans. Since the heating and the cooling scans were performed three times, the second heating endotherm was selected as the representative one. […] If the baseline variations observed during the first heating scans were not observed on the following two scans and with other concentrations of the same ILs, they were regarded as artefacts. […] Cooling scans (not shown) were recorded in order to follow the stability of the system, however, no further analysis of the cooling scans was performed. Such heating and cooling scans are standard in DSC experiments.
The DSC results are discussed in more detail in the following text for each IL carboxylate group. Instead of referring to the peak areas, which define the energy taken by the transition (cal/° C./mol), corresponding peak heights are referred to in the text, since the relative changes in the peak heights are more easily observed by visual inspection.
A stock solution of DPPC was prepared by dissolving DPPC in chloroform. Required amount of the stock solution was transferred into a glass test tube and the chloroform was evaporated under airflow in order to form a thin film of DPPC on the walls of the tube. The air-dried lipid film was held under vacuum desiccator at least for 2 h to remove the residual solvent. The lipid was dispersed into water to obtain a 4.0 mM liposome stock. The dispersion was incubated in an ultrasonication water bath for 30 min at 60° C. facilitating the formation of multilamellar liposomes.
DSC was utilized in observing the changes induced by the ILs in the organization of the lipid bilayers. Here DPPC was used because the Tm of the bilayer is well recognized—approximately 41.3° C. […] There are two additional transitions observed for DPPC aqueous solutions; the subtransition at 21° C. and the pretransition at 36° C.

Vibrio fischeri bacteria = assay: Vibrio fischeri toxicity assay (Microtox, decay of bioluminescence); assay type: cell-based
Protocol: The toxicities were determined by exposing Vibrio fischeri marine bacteria to aqueous solutions of ILs in differing concentrations. These bacteria have successfully been used for IL toxicity assessments in a myriad of studies. A recent comparison was performed between V. fischeri and three other standardized toxicity assays utilizing aquatic organisms, namely Daphnia magna (a fresh water crustacean), Selenastrum capricomutum (a freshwater algae) and Phaeodactylum tricomutum (a seawater algae).
The toxicity measurements were performed from an ecotoxicological point of view, since ILs are potentially hazardous for the environment and particularly for organisms in aquatic environments. Therefore, V. fischeri marine bacteria were utilized in these measurements. EC50 values were determined for seven water-soluble surface-active ILs. The ILs in this study included Ch-, GND-, TMG-based ILs with straight and branched (iso and neo forms) fatty acid chains, namely isostearates, decanotes and neodecanoates. As a reference, the toxicities of the sodium salts of these carboxylates were measured in order to obtain information on the effect of the cation on the toxicities of the ILs.
The toxicities of the ILs were defined by measuring their EC50 values using V. fischeri bacteria and Microtox luminometer/thermostate apparatus (Modern Water, USA). The response measured in this assay is the decay of bioluminescence produced by the bacteria. In short, the bioluminescence was measured before the exposure on the potentially toxic compound to determine the baseline luminescence. Consequently, the bacteria were exposed on minimum four differing toxicant concentrations in 2% (w/v) NaCl solution and the decay in the luminescence was recorded. Based on the concentration-dependent decay the EC50 value was defined. The toxicities were defined at set time intervals of 5 and 15 minutes. Two independent measurements were performed for each IL as duplicates.

[3] = DPPC liposomes, earlier DSC investigation; cited from earlier work
[4] = Vibrio fischeri, 5 min incubation, 2% (w/v) NaCl solution, read-out: EC50 5min
[5] = Vibrio fischeri, 15 min incubation, 2% (w/v) NaCl solution, read-out: EC50 15min
[6] = Aliivibrio fischeri, 5 min, Vibrio fischeri, 5 min incubation, 2% (w/v) NaCl solution, read-out: EC50 5min
[7] = Aliivibrio fischeri, 0.25 h, Vibrio fischeri, 15 min incubation, 2% (w/v) NaCl solution, read-out: EC50 15min

Compound: CC(C)(C)CCCCCC(=O)[O-].[Na+] [Na Neodecanoate, sodium neodecanoate, reference compound]
- CMC (critical micelle concentration) [1]: 422 ± 38^L mM
- Loss of transition (concentration range within which the phase transition was no longer detected) [2]: 40 to 60 mM
- EC50 (Vibrio fischeri bacteria; Aliivibrio fischeri, 5 min, read-out: EC50 5min): 500 ± 20 µM
- EC50 (Vibrio fischeri bacteria; Aliivibrio fischeri, 0.25 h, read-out: EC50 15min): 473 ± 6 µM

Compound: Choline isostearate [Ch Isostearate]
- CMC (critical micelle concentration) [1]: 0.50 ± 0.06^L mM
- CMC (critical micelle concentration) ([1]; listed as Ch isostearate): ~0.5 mM
- Loss of transition (concentration range within which the phase transition was no longer detected) [2]: 0.5 to 1.0 mM
- EC50 (Vibrio fischeri bacteria; [4]): 130 ± 20 µM
- EC50 (Vibrio fischeri bacteria; [5]): 74 ± 5 µM

Compound: Guanidinium isostearate [GND Isostearate]
- CMC (critical micelle concentration) [1]: 0.31 ± 0.08^S mM
- Loss of transition (concentration range within which the phase transition was no longer detected) [2]: 0.5 to 1.0 mM
- EC50 (Vibrio fischeri bacteria; [4]): 98 ± 2 µM
- EC50 (Vibrio fischeri bacteria; [5]): 66 ± 5 µM

Compound: choline neodecanoate [Ch Neodecanoate]
- CMC (critical micelle concentration) [1]: 319 ± 13^L mM
- highest concentration at which the transition peak was still observed ([2]; 0.4 mM DPPC, no higher concentrations measured): 60 mM
- EC50 (Vibrio fischeri bacteria; [4]): 560 ± 60 µM
- EC50 (Vibrio fischeri bacteria; [5]): 520 ± 80 µM

Compound: CCCCCCCCCC(=O)[O-].[Na+] [Na decanoate, sodium decanoate, reference compound]
- CMC (critical micelle concentration) [1]: 22±3 mM and 22 ± 3^L mM
- Tm of DPPC bilayer ([2]; 50 mM IL, 0.4 mM DPPC): above 35 °C
- EC50 (Vibrio fischeri bacteria; [6]): 130 ± 20 µM
- EC50 (Vibrio fischeri bacteria; [7]): 130 ± 20 µM

Compound: 1,1,3,3-tetramethylguanidinium neodecanoate [TMG Neodecanoate]
- CMC (critical micelle concentration) [1]: 261 ± 11^L mM
- EC50 (Vibrio fischeri bacteria; [4]): 700 ± 70 µM
- EC50 (Vibrio fischeri bacteria; [5]): 650 ± 70 µM

Compound: 1,1,3,3-Tetramethylguanidinium isostearate [TMG Isostearate]
- CMC (critical micelle concentration) [1]: 0.30 ± 0.04^S mM
- Loss of transition (concentration range within which the phase transition was no longer detected) [2]: 0.5 to 1.0 mM
- EC50 (Vibrio fischeri bacteria; [4]): 94 ± 1 µM
- EC50 (Vibrio fischeri bacteria; [5]): 62 ± 5 µM

Compound: CCCCCCCCC(=O)[O-].C[N+](C)(C)CCO [Ch nonanoate]
- highest concentration at which a peak for the Tm was still observed [3]: 50 mM

Compound: guanidinium neodecanoate [GND Neodecanoate]
- CMC (critical micelle concentration) [1]: 118 ± 2^L mM
- Loss of transition (concentration range within which the phase transition was no longer detected) [2]: 15.0 to 25.0 mM
- EC50 (Vibrio fischeri bacteria; [4]): 730 ± 90 µM
- EC50 (Vibrio fischeri bacteria; [5]): 690 ± 70 µM

Compound: choline decanoate [Ch Decanoate]
- Loss of transition (concentration range within which the phase transition was no longer detected) [2]: 2.0 to 5.0 mM
- concentrations at which the ILs affected the liposomes ([2]; DPPC liposomes 0.4 mM, DSC): 0.5 to 5 mM
- EC50 (Vibrio fischeri bacteria; [4]): 100 ± 20 µM
- EC50 (Vibrio fischeri bacteria; [5]): 100 ± 20 µM

Compound: CC(C)CCCCCCCCCCCCCCC(=O)[O-].[Na+] [Na Isostearate, sodium isostearate, reference compound]
- CMC (critical micelle concentration) [1]: 0.72 ± 0.06^L mM
- Loss of transition (concentration range within which the phase transition was no longer detected) [2]: 0.001 to 0.01 mM
- EC50 (Vibrio fischeri bacteria; [6]): 110 ± 10 µM
- EC50 (Vibrio fischeri bacteria; [7]): 81 ± 4 µM
